Data reported in patent publication US20250295608A1, “PHARMACEUTICAL COMPOSITIONS AND METHODS FOR TREATING OSTEOARTHRITIS” (INSIGNIA PHARMACEUTICALS, LLC, priority 2024, published 2025).
“Also recorded” adds a separate entry of the source. One block for each compound: values may come before it.

Tests used:
arachidonic acid (AA) = assay: Arachidonic acid in IL-1β-stimulated osteoarthritic synoviocytes; type: cell-based, human; conditions: IL-1β 1 ng/mL, 3 hours; cell lysates
Experimental: Early concentrations of arachidonic acid (AA) present in primary human synoviocytes from patients with osteoarthritis that were stimulated with 1 ng/mL final concentration interleukin 1-beta (B) for 3 hours in the presence of varying concentrations of Dex and DA in view of controls are depicted in FIG. 32. The concentrations of AA in FIG. 32 were normalized to total protein content from the cell lysates using bicinchoninic acid (BCA).

Cyclooxygenase-2 (COX-2) = target: T1, Cyclooxygenase-2 (COX-2) (Homo sapiens, UniProt P35354); assay: COX-2 inhibitor screen; type: biochemical; conditions: any of the concentrations tested
T1 sequence (P35354 18-604): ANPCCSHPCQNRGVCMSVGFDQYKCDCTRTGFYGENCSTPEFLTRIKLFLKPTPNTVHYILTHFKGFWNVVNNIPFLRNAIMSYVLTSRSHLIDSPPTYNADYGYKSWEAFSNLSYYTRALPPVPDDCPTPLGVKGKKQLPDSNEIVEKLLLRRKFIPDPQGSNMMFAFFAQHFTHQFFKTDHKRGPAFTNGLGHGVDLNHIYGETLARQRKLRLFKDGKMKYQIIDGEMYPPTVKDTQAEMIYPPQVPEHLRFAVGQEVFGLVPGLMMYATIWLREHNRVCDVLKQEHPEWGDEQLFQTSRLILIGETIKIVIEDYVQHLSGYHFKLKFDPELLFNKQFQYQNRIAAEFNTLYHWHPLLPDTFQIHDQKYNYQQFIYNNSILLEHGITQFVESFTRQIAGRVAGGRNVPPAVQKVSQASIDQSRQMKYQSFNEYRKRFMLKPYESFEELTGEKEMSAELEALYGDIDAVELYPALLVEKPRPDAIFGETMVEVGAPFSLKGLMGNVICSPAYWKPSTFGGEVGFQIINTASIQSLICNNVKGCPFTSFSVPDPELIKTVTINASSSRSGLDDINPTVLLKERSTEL

[1] = system: interleukin-18, tumor necrosis factor, interleukin-8, and interleukin-6; assay: Other cytokines in two-hit stimulated THP1 macrophages; type: cell-based, human; conditions: dose dependent; data not shown
prostaglandin I2 (PGI2) = assay: PGI2 in IL-1β-stimulated osteoarthritic synoviocytes; type: cell-based, human; conditions: IL-1β 1 ng/ml, 24 hours
Experimental: FIG. 25 is a bar graph that depicts the concentration of prostaglandin I2 (PGI2) present in primary human synoviocytes from patients with osteoarthritis that were stimulated with 1 ng/ml final concentration of IL-1β for 24 hours in the presence of varying concentrations of DA and Dex in view of controls. PGI2 concentration response mirrored PGE2 concentrations after DA treatment. […] It is noted that prostaglandin H2 (PGH2) was also tested and was not detected in either cell culture media or from cell lysates. Without being bound by theory, it is believed that PGH2 is an intermediate and is (near) immediately converted into downstream prostaglandins and therefore levels of PGH2 are not detectable.

prostaglandin D2 (PGD2) = assay: IL-1β-induced PGD2 release in osteoarthritic human synoviocytes; type: cell-based; conditions: IL-1β 0.5 ng/mL
SOX9 = SOX9 relative expression in osteoarthritic chondrocytes (qRT-PCR, normalized to GAPDH); type: cell-based, human
PGE2 = assay: IL-1β-induced PGE2 in osteoarthritic human synoviocytes; type: cell-based; conditions: for PGE2 release: 200 nanomolar DA or 500 ng/mL IL-1RA, pretreatment 5 min, 1 h or 2 h, IL-1β 1 ng/mL for 10 minutes or 1 hour
Experimental: FIG. 31A depicts early concentrations of PGE2 present in primary […] of varying concentrations of Dex and DA in view of controls. The concentrations in FIG. 31A were measured at hour three.
FIG. 31B is a bar graph depicting PGE2 release from human osteoarthritic synoviocytes treated with media, 200 nanomolar DA, or 500 nanograms/milliliter of IL-1 Receptor Antagonist (IL-1RA) for the specified pretreatment times at the bottom of each panel (5 minutes, 1 hour, or 2 hours, and then stimulated with 1 nanogram/milliliter IL-1β for either 10 minutes or 1 hour, as indicated. PGE2 in picograms/milliliter was released at detectable levels in each of the media treated samples, including the short 10-minute IL-1β stimulation conditions, implicating low level activation caused by a change of media. The media controls within each panel of treatments released increased PGE2 compared to DA treated cells. Cells were also treated with IL-IRA which inhibits IL-1β by binding […], effectively blocking IL-1β signaling. […] DA is able to incorporate into the cell membrane_and the immediate inhibition of signaling may reflect the ability of DA to change the biophysical properties of the cell membrane.
FIG. 33 illustrates two bar graphs that depict the concentrations of PGE2 inside of the cell versus PGE2 that was secreted into the cell culture media. Specifically, the bar graph labeled “Intracellular” illustrates the concentrations of PGE2 inside of the cell and the bar graph labeled “Supernatent” illustrates the concentration of PGE2 that was secreted into the cell culture media. Synoviocytes were stimulated with IL-1β for 6 hours and then cell culture media harvested separately along with collecting cell lysates. […] Specifically, treating osteoarthritic HSF cells with 1 ng/ml IL-1β final concentration causes the cells to secrete large amounts of PGE2 into the cell culture media. […] To test this, the PGE2 concentrations inside of the cells and in the cell culture media were measured to compare them directly to each other. […] Thus, without being bound by theory, it is believed that DA binds to or interacts with MRP4 proteins and prevents MRP4 from successfully transporting PGE2.

[2] = system: IL-1β-induced PGE2 release; assay: IL-1β-induced PGE2 release from normal human chondrocytes (competitive EIA); type: cell-based; conditions: for inhibition at 10 µM: Homo sapiens, Chondrocyte
MMP13 = MMP13 relative expression in osteoarthritic chondrocytes (qRT-PCR); type: cell-based, human; conditions: for Observed Relative expression of MMP13: 0.1% HA, 0.1 uM Dex
[3] = system: matrix metalloproteinase 12 (MMP12); assay: MMP12 mRNA in NHDF, qRT-PCR; type: cell-based, human; conditions: IL-1β 0.1 ng/ml, 24 hours; 100 mM Lac, 0.1 mM Dxp
Experimental: (§1) After 24 hours, total mRNA was isolated and delta-delta Cp relative expression was calculated versus untreated medium controls, normalized to the housekeeping gene, GAPDH. Statistical analysis was then conducted via t-test.

[4] = system: matrix metalloproteinase 3 (MMP3); assay: MMP3 mRNA in NHDF, qRT-PCR; type: cell-based, human; conditions: IL-1β 0.1 ng/ml, 24 hours; 100 mM Lac, 0.1 mM Dxp
Experimental: as §1

type I collagen (Col1a1) = assay: Col1a1 relative expression in osteoarthritic chondrocytes (qRT-PCR); type: cell-based; conditions: passage 5 human osteoarthritic chondrocytes, 27 days
Experimental: To evaluate the biological ramifications of the SOX9 to RUNX2 regulation mentioned above, delta-delta relative gene expression was assessed against medium controls, with normalization to GAPDH for both Col2a1 and Col1a1 in the samples tested with reference to Example 15. […] Moreover, treatment with 100 mM Lac increased collagen expression (49.88+4.31 and 1.63+0.20 for Col2a1 and Col1a1, respectively; FIGS. 51 and 52).

SOX9 versus RUNX2 = assay: Relative expression of SOX9 versus RUNX2 in osteoarthritic chondrocytes; type: cell-based, human; conditions: for expression of SOX9 compared to RUNX2: passage 5 human osteoarthritic chondrocytes, 27 days
Elastin (ELN) = assay: ELN mRNA in normal human dermal fibroblasts (NHDF), qRT-PCR; type: cell-based; conditions: IL-1β 0.1 ng/ml, 24 hours; 100 mM Lac, 0.1 mM Dxp; n=3
Experimental: as §1

[5] = system: type II collagen (Col2a1); assay: Col2a1 relative expression in osteoarthritic chondrocytes (qRT-PCR); type: cell-based, human
Aggrecan (ACAN) = assay: ACAN relative expression in osteoarthritic chondrocytes (qRT-PCR); type: cell-based; conditions: passage 5 human osteoarthritic chondrocytes, 27 days
RUNX2 = RUNX2 relative expression in osteoarthritic chondrocytes (qRT-PCR)
IL-1β release = assay: Two-hit (LPS then ATP) inflammasome activation, IL-1β release from THP1 macrophages; type: cell-based, human; conditions: with 25 nanomolar Dex
[6] = high passage, dedifferentiated osteoarthritic chondrocytes, TGF-β3, 14 days
[7] = low passage osteoarthritic chondrocytes, 7, 14, 28 days
[8] = pre-incubation 24 hours, 24-hour harvest, 25 uM Dec, 28 mM Lac, 10 uM LA, singlet
[9] = rescue (added after overnight IL-1β activation), 24-hour harvest, 25 uM Dec, 28 mM Lac, 10 uM LA, singlet
[10] = rescue, 96-hour harvest, 25 uM Dec, 28 mM Lac, 10 uM LA, singlet
[11] = 100 millimolar Lac with 10 ng/mL TGF-B3, 14 days, micromass cultures
[12] = 100 millimolar Lac, 14 days, monolayer cultures
[13] = passage 5 human osteoarthritic chondrocytes, 27 days

- inhibition of COX-2 activity (Cyclooxygenase-2 (COX-2)): no observed inhibition
Compound: CCCCCCCCCC(=O)O [DA, decanoic acid]
- concentration of AA normalized to total protein (arachidonic acid (AA)): lower concentrations of AA than the Dex samples; also recorded: lower than that of the control with IL-1β
- expression of interleukin-18, tumor necrosis factor, interleukin-8, and interleukin-6 [1]: reduced the expression
- secreted PGI2 levels (prostaglandin I2 (PGI2)): decreases secreted PGI2 levels
- concentrations inhibiting PGD2 release (prostaglandin D2 (PGD2)): above 1 micromolar
- SOX9 expression (SOX9; [6]): increased SOX9 transcription
- PGE2 release (PGE2): blocked the low-level activation seen in media controls
- concentrations inhibiting PGE2 release (PGE2; IL-1β 0.5 ng/mL): above 1 micromolar
- PGE2 inside of the cell (PGE2; IL-1β 1 ng/ml, 6 hours, cell lysates): causes PGE2 to build up intracellularly
- PGE2 secreted into the cell culture media (PGE2; IL-1β 1 ng/ml, 6 hours, supernatant): causes PGE2 secretion to be abrogated
- increase in potency of DA (PGE2; by 100 picomolar Dex): 2.2 ×

Compound: CCCCCCCCCC(=O)O [DA/Dec]
- SOX9 expression (SOX9; [6]): increased expression of SOX9

Compound: C[C@@H]1C[C@H]2[C@@H]3CCC4=CC(=O)C=C[C@]4(C)[C@@]3(F)[C@@H](O)C[C@]2(C)[C@@]1(O)C(=O)CO [Dex, dexamethasone, reference compound]
- concentration with statistical significance, PGE2 release ([2]; IL-1β, 48 h): 100 picomolar

Compound: C[C@@H]1C[C@H]2[C@@H]3CCC4=CC(=O)C=C[C@]4(C)[C@@]3(F)[C@@H](O)C[C@]2(C)[C@@]1(O)C(=O)COP(=O)(O)O [Dxp, dexamethasone phosphate, reference compound]
- MMP13 transcription (MMP13; [7]): reduce MMP13 transcription
- SOX9 expression (SOX9; [6]): decreased expression of SOX9
- SOX9 expression (SOX9; [7]): temporal decrease in expression of SOX9

Compound: O=C(O)CCCCC1CCSS1 (stereo not drawn) [LA, α-lipoic acid]
- inhibition at 10 µM ([2]; 96 h, rescue, 96-hour harvest, 25 uM Dec, 28 mM Lac, 10 uM LA, singlet): 33%
- inhibition at 10 µM [2, 8]: -59%
- SOX9 expression (SOX9; [6]): increased SOX9 transcription; also recorded: increases SOX9 relative expression

Compound: CC(O)C(=O)O (centres unmarked) [Lac, lactate]
- relative expression of MMP12 [3]: 2.2 ± 0.8
- relative expression of MMP3 [4]: 1.5 ± 0.8
- inhibition of PGE2 release ([2]; 100 millimolar Lac, 0.5 ng/mL IL-1β, 48 h): complete inhibition
- concentration with statistically significant effect, PGE2 release ([2]; IL-1β, 48 h): ≥ 10 millimolar
- inhibition of PGE2 release [2, 8]: −139%
- inhibition of PGE2 release [2, 9]: 64%
- inhibition of PGE2 release [2, 10]: 27%
- relative expression of Col1a1 versus medium controls (type I collagen (Col1a1)): 1.63+0.20 fold
- ratio of SOX9/RUNX2 (SOX9 versus RUNX2; [7]): temporally increased
- expression of SOX9 compared to RUNX2 (SOX9 versus RUNX2): 25.14+12.71
- increase in SOX9 (SOX9; [11]): 9 fold
- increase in relative expression of SOX9 (SOX9; [12]): 8 fold
- increase in SOX9 transcription (SOX9; high passage osteoarthritic chondrocytes, TGF-B, 14 days, 100 mm LA, 28 mM Lac): 2 fold
- SOX9 expression (SOX9; [6]): increased SOX9 transcription; also recorded: increased expression of SOX9
- SOX9 expression (SOX9; [7]): temporal increase in SOX9
- relative expression of SOX9 versus medium controls (SOX9; passage 5 human osteoarthritic chondrocytes, 27 days, 50 micromolar Dec, 0.1 micromolar Dxp, 100 millimolar Lac): 6.34+2.46 fold
- relative expression of ELN (Elastin (ELN)): 0.86+3
- increase in Col2a1 [5, 11]: 88 fold
- increase in collagen ([5]; 100 millimolar Lac, 14 days, micromass pellets): 11 fold
- increase in relative expression of Col2a1 [5, 12]: 1600 fold
- increase in Col2a1 compared to controls ([5]; high passage osteoarthritic chondrocytes, TGF-B, 14 days, 28 mM Lac): 30 fold
- relative expression of Col2a1 ([5]; low passage osteoarthritic chondrocytes, day 28): elevated Col2a1 relative expression
- relative expression of Col2a1 versus medium controls [5, 13]: 49.88+4.31 fold
- relative expression of ACAN (Aggrecan (ACAN)): 3.81+0.77 fold
- RUNX2 expression (RUNX2; [7]): temporal decrease in RUNX2; also recorded: temporally reduced RUNX2 expression
- relative expression of RUNX2 versus medium controls (RUNX2; [13]): −2.51+1.33

Compound: CCCCCCCCCC(=O)[O-].[Na+] [decanoate, sodium decanoate]
- increase in potency of sodium decanoate (IL-1β release): 4.6 ×
- inhibition of PGE2 release ([2]; added at the same time as IL-1β, 24-hour harvest, 25 uM Dec, singlet): 53%
- inhibition of PGE2 release ([2]; added at the same time as IL-1β, 96-hour harvest, 25 uM Dec, singlet): 76%
- inhibition of PGE2 release [2, 8]: 41%
- inhibition of PGE2 release ([2]; pre-incubation, 96-hour harvest, 25 uM Dec, singlet): 75%
- inhibition of PGE2 release [2, 9]: 72%
- inhibition of PGE2 release [2, 10]: 57%
- expression of SOX9 compared to RUNX2 (SOX9 versus RUNX2): 1.80+0.47

Compound: IL-1RA: IL-1 Receptor Antagonist, blocks IL-1β signaling [reference compound]
- PGE2 release (PGE2): consistently higher than PGE2 levels in DA treated cells

Compound: hyaluronic acid [HA]
- Observed Relative expression of MMP13 (MMP13; 14-day micromass pellet culture): −1.6 fold
- Observed Relative expression of MMP13 (MMP13; 28-day monolayer culture): 1.0 fold
